Laboratory results published in article PMC6277767, “Broad and Region-Specific Impacts of the Synthetic Cannabinoid CP 55,940 in Adolescent and Adult Female Mouse Brains” (Frontiers in Molecular Neuroscience, 2018).

Test system: CD1 female mouse brain lipidome
Assay: Brain-region lipid levels (HPLC/MS/MS lipidomics) 2 h after single i.p. 3 mg/kg CP 55,940 vs vehicle
Type: in vivo
Protocol: The Bloomington Institutional Animal Care and Use Committee of Indiana University reviewed and approved the animal procedures. Female mice from the CD1 strain were utilized to match our study examining THC’s effects on the brain lipidome ([Leishman et al., 2018]). Mice were given a single i.p. injection of either 3 mg/kg CP or 1:1:18 cremophor:ethanol:saline vehicle (please refer to the section “3 mg/kg CP Is Relevant for Synthetic Cannabinoid Abuse and Has Stronger Effects on the Female Mouse Brain Lipidome During Adolescence” for a justification of dose and use of female mice). Three different age groups were given injections: PND 35 and PND 50 adolescents, and adult mice (PND 113). At least eight mice in each age group received CP and at least eight received vehicle. Matching the THC study time course ([Leishman et al., 2018]), mice were sacrificed via rapid decapitation 2 h after injection. Brains were immediately removed and flash-frozen in liquid nitrogen, and then stored at -80°C until dissections were performed. Brains were dissected on an ice-cold dissection plate into the following regions: STR, HIPP, CER, THAL, CTX, HYP, MID, and STEM. These abbreviations for these brain areas will be used exclusively when discussing the results generated by these specific dissections. Each dissected area was immediately placed in liquid nitrogen and then stored at -80°C until used for lipid extraction.
Tissue extracts were performed as previously described ([Bradshaw et al., 2006]; [Stuart et al., 2013]; [Raboune et al., 2014]; [Leishman et al., 2016a],[b], [2017], [2018]). First, samples were shock frozen in liquid nitrogen, weighed, and transferred to a centrifuge tube. The mass of the largest sample was multiplied by 50 to determine how many milliliters of HPLC-grade methanol (Fisher, Fair Lawn, NJ, United States) to add. Then, samples were spiked with 500 pmol deuterium-labeled NAGly (d8NAGly; Cayman Chemical, Ann Arbor, MI, United States). Samples were placed on ice in darkness for 2 h then individually homogenized and centrifuged at 19,000 × g for 20 min at 20°C. Supernatants were diluted with HPLC water (purified in house) to make a solution of 75% water, 25% supernatant. Lipids were partially purified on C18 solid phase extraction columns (Agilent, Palo Alto, CA, United States). A series of four elutions with 1.5 mL of 60%, 75%, 85%, and 100% methanol were collected ([Stuart et al., 2013]; [Leishman et al., 2016a],[b], [2018]).
As previously described ([Bradshaw et al., 2006]; [Tan et al., 2006]; [Smoum et al., 2010]; [Stuart et al., 2013]; [Tortoriello et al., 2013]; [Raboune et al., 2014]; [Leishman et al., 2016a],[b], [2017], [2018]), samples were analyzed using an Applied Biosystems API 3000 triple quadrupole mass spectrometer with electrospray ionization (Foster City, CA, United States). Using an Agilent XDB-C18 reversed phase analytical column and optimized mobile phase gradients, 20 μL from each elution were chromatographed. Two Shimadzu 10ADvp pumps (Columbia, MD, United States) provided the pressure for gradient elution. Mobile phase A: 20% methanol, 80% water (v/v) and 1 mM ammonium acetate (Sigma, St. Louis, MO, United States). Mobile phase B: 100% methanol, 1 mM ammonium acetate. Every method run began with 0% mobile phase B, reached 100% mobile phase B flowing at 0.2 mL/min, and gradually returned to 0% mobile phase B.
This screening library will be referred to as the lipidome when discussing data from this study. HPLC/MS/MS data were analyzed using Analyst software (Applied Biosystems) ([Bradshaw et al., 2006]; [Tan et al., 2006]; [Stuart et al., 2013]; [Tortoriello et al., 2013]; [Raboune et al., 2014]; [Leishman et al., 2016a],[b], [2017], [2018]). Chromatograms (Supplementary Figure 3) were generated by determining the retention time of analytes from the analytical column with a [M-1] or [M+1] parent peak and a fragmentation peak corresponding to the programmed values. […]

[1] = adult brainstem, 3mg/kg CP 55,940
[2] = adult cortex, 3 mg/kg CP 55,940, p .004
[3] = adult cortex, 3 mg/kg CP 55,940, p .008
[4] = adult cortex, 3 mg/kg CP 55,940, p .028
[5] = adult cortex, 3 mg/kg CP 55,940, p .055
[6] = adult cortex, 3 mg/kg CP 55,940, p .057
[7] = adult cortex, 3 mg/kg CP 55,940, p .077
[8] = adult cortex, 3 mg/kg CP 55,940, p .086
[9] = adult cortex, 3 mg/kg CP 55,940, p .090
[10] = adult female mice, brainstem, 3mg/kg CP 55,940

## CCCCCCC(C)(C)c1ccc([C@@H]2C[C@H](O)CC[C@H]2CCCO)c(O)c1 [CP 55,940]
[1]
  N-docosahexaenoyl alanine level, Mean: 3.28E-13
  N-docosahexaenoyl ethanolamine level, Mean: 2.85E-11
  N-docosahexaenoyl glycine level, Mean: 5.52E-13
  N-docosahexaenoyl phenylalanine level, Mean: 3.64E-14
  N-linoleoyl GABA level, Mean: 6.22E-12
  N-linoleoyl alanine level, Mean: 2E-13
  N-linoleoyl ethanolamine level, Mean: 8.37E-12
  N-linoleoyl glycine level, Mean: 1.41E-13
  N-linoleoyl methionine level, Mean: BDL
  N-oleoyl GABA level, Mean: 1.65E-11
  N-oleoyl alanine level, Mean: 3.26E-12
  N-oleoyl dopamine level, Mean: BDL
  N-oleoyl ethanolamine level, Mean: 2.44E-10
  N-oleoyl ethanolamine, Direction (relative to Veh): ↓
  N-oleoyl ethanolamine, Magnitude (x Veh level): 0.76 x Veh level
  N-oleoyl glycine level, Mean: 2.1E-12
  N-oleoyl leucine level, Mean: 2E-12
  N-oleoyl methionine level, Mean: 4.11E-13
  N-oleoyl phenylalanine level, Mean: 4.28E-13
  N-palmitoyl GABA level, Mean: 1.95E-11
  N-palmitoyl alanine level, Mean: 3.16E-12
  N-palmitoyl ethanolamine level, Mean: 8.74E-11
  N-palmitoyl glycine level, Mean: 2.79E-12
  N-palmitoyl leucine level, Mean: 3.05E-12
  N-palmitoyl leucine, Direction (relative to Veh): ↑
  N-palmitoyl leucine, Magnitude (x Veh level): 1.30 x Veh level
  N-palmitoyl methionine level, Mean: 5.07E-12
  N-palmitoyl phenylalanine level, Mean: 2.38E-13
  N-palmitoyl valine Direction (relative to Veh): ↑
  N-palmitoyl valine Magnitude (x Veh level): 1.43 x Veh level
  N-stearoyl GABA level, Mean: 1.37E-11
  N-stearoyl alanine level, Mean: 5.4E-12
  N-stearoyl ethanolamine level, Mean: 3.01E-11
  N-stearoyl glycine level, Mean: 4.95E-12
  N-stearoyl leucine level, Mean: 1.96E-12
  N-stearoyl methionine level, Mean: 4.69E-13
  N-stearoyl phenylalanine level, Mean: 1.53E-13
  Oleic acid, Direction (relative to Veh): ↓
  Oleic acid, Magnitude (x Veh level): 0.80 x Veh level
  PGE2 Direction (relative to Veh): ↓
  PGE2 Magnitude (x Veh level): 0.87 x Veh level
Adult cortex, 3mg/kg CP 55,940
  2-arachidonoyl glycerol level, Mean: 3.28E-09
  2-linoleoyl glycerol level, Mean: 1.48E-10
  2-oleoyl glycerol level, Mean: 1.56E-09
  2-palmitoyl glycerol level, Mean: 8.13E-11
  6-ketoPGF1α level, Mean: 1.5E-11
  11-OH-THC level, Mean: BDL
  11-nor-9-carboxyTHC level, Mean: BDL
  Arachidonic acid level, Mean: 9.03E-10
  Cannabidiol level, Mean: BDL
  Linoleic acid level, Mean: 5.34E-10
  N- stearoyl valine level, Mean: 2.51E-14
  N-arachidonoyl proline level, Mean: BDL
  N-arachidonoyl taurine level, Mean: 8.95E-11
  N-arachidonoyl tryptophan level, Mean: BDL
  N-arachidonoyl tyrosine level, Mean: 6.06E-13
  N-docosahexaenoyl proline level, Mean: BDL
  N-docosahexaenoyl tryptophan level, Mean: BDL
  N-docosahexaenoyl tyrosine level, Mean: 3.81E-13
  N-linoleoyl proline level, Mean: BDL
  N-linoleoyl serine level, Mean: 1.53E-11
  N-linoleoyl tryptophan level, Mean: BDL
  N-linoleoyl tyrosine level, Mean: BDL
  N-nervonoyl valine level, Mean: BDL
  N-oleoyl proline level, Mean: BDL
  N-oleoyl serine level, Mean: 8.25E-11
  N-oleoyl tryptophan level, Mean: BDL
  N-oleoyl tyrosine level, Mean: 3.46E-13
  N-oleoyl valine level, Mean: 1.3E-14
  N-palmitoyl proline level, Mean: BDL
  N-palmitoyl serine level, Mean: 6.45E-12
  N-palmitoyl tryptophan level, Mean: BDL
  N-palmitoyl tyrosine level, Mean: 7.95E-13
  N-palmitoyl valine level, Mean: 1.13E-13
  N-stearoyl proline level, Mean: BDL
  N-stearoyl serine level, Mean: 9.84E-12
  N-stearoyl tryptophan level, Mean: BDL
  N-stearoyl tyrosine level, Mean: 1.21E-13
  Oleic acid level, Mean: 4.6E-10
  PGE2 level, Mean: 3.08E-10
  PhosphoLEA level, Mean: 1.8E-12
  THC level, Mean: BDL
[2]
  6-ketoPGF1α Direction (relative to Veh): ↓
  6-ketoPGF1α Magnitude (x Veh level): 0.68
[3]
  N-palmitoyl valine Direction (relative to Veh): ↑
  N-palmitoyl valine Magnitude (x Veh level): 1.49
[4]
  PGF2α Direction (relative to Veh): ↓
  PGF2α Magnitude (x Veh level): 0.89
[5]
  N-linoleoyl GABA Direction (relative to Veh): ↓
  N-linoleoyl GABA Magnitude (x Veh level): 0.86
[6]
  N-stearoyl phenylalanine, Direction (relative to Veh): ↓
  N-stearoyl phenylalanine, Magnitude (x Veh level): 0.66
[7]
  Arachidonic acid, Direction (relative to Veh): ↓
  Arachidonic acid, Magnitude (x Veh level): 0.86
[8]
  N-arachidonoyl taurine Direction (relative to Veh): ↓
  N-arachidonoyl taurine Magnitude (x Veh level): 0.93
[9]
  2-linoleoyl glycerol Direction (relative to Veh): ↓
  2-linoleoyl glycerol Magnitude (x Veh level): 0.76
[10]
  2-arachidonoyl glycerol level, Mean: 4.32E-09
  2-linoleoyl glycerol level, Mean: 2.54E-10
  2-oleoyl glycerol level, Mean: 3.17E-09
  2-palmitoyl glycerol level, Mean: 3.83E-11
